Source: patent US11680264B2, “Methods of modulating melanosome pH and melanin level in cells” (Cornell University, priority 2016, dated 2023)

Columns and labels:
sAC^FF mouse melanocytes = assay: Cellular eumelanin content; format: cell-based; conditions: KH7 30 μM or LRE1 50 μM, 96 hours
Protocol: (§1) FIGS. 15A-15J provide the results of experiments analyzing the effect of sAC activity on melanin production. FIG. 15A is a graph illustrating the cellular eumelanin and pheomelanin content in sAC^FF (FF) and sAC^KO (KO) mouse melanocytes. Numbers above bars represent the ratio of pheomelanin to eumelanin. Average of triplicate determinations. FIG. 15B is a graph illustrating the cellular eumelanin content of sAC^FF and sAC^KO mouse melanocytes grown for 96 hours in the absence (−, DMSO) or presence of KH7 (+, 30 μM). Average of triplicate determinations. FIG. 15C is a graph illustrating the fold over baseline cellular eumelanin level of human melanocytes (n=8) treated with KH7 (30 μM) or vehicle (DMSO) for 48 hours. All assays performed in triplicate. Students t-test **P<0.01, ****P<0.0001. FIG. 15D is images of cell pellets of sAC^FF and sAC^KO mouse melanocytes. FIG. 15E is a graph of the melanin levels of pairs of sAC^FF and sAC^KO mouse melanocytes. FIGS. 15F and 15G are images of cell pellets of sAC^FF mouse melanocytes grown in the absence (DMSO, FIGS. 15G and 15F, left panels) or presence of KH7 (FIG. 15G, 30 μM, right panel) or LRE1 (FIG. 15F, 50 μM, right panel) for 96 hours. FIG. 15H is images of cell pellets of human melanocytes (C226, C38) treated with vehicle control (DMSO, left) or KH7 (30 μM, right) for 48 hours. FIG. 15I is images of cell pellets of human melanocytes (C226) treated with vehicle control (DMSO, left) or ESl-09 (10 μM, right) for 48 hours. FIG. 15J is a graph illustrating the fold over baseline cellular (eumelanin) level of human melanocytes treated with ESl-09 (10 μM) or vehicle (DMSO) for 48 hours (n=3, distinct human cell lines). For FIGS. 15E and 15J Students t-test, *p<0.05, **p<0.01, ****p<0.0001.

sAC^KO mouse melanocytes = assay: Cellular eumelanin content; format: cell-based; conditions: 96 hours
Protocol: as §1

human melanocytes = assay: DAMP melanosome pH assay (HMB45 co-staining); format: cell-based; conditions: 4 hours, KH7 30 μM, cAMP 500 μM, H89 10 μM, ESI-09 10 μM
Protocol: N-{3-[(2,4-dinitrophenyl)amino]propyl}-N-(3-aminopropyl)methylamine dihydrochloride (DAMP) is a weakly basic amine that is taken up in acidic organelles of live cells and which has been used to measure melanosome pH (Bin et al., PLOS One, 10(6):e0129273 (2015); Tabata et al., Cell Tissue Res., 332(3): 447-460 (2008)). Cells were cultured on sterile glass coverslips in 24-mm wells at 50×10^3 cells/coverslip. […] After permeabilization with 0.1% Triton X-100 in Buffer A at −20° C., the cells were labeled with the supplied anti-DNP antibody (Oxford Biomedical Research) according to kit protocol. Melanosomes were identified using the monoclonal antibody (anti-HMB45, 1:40, Santa Cruz Biotechnology). Fluorescence was detected after secondary staining with Alexa Fluor 546 donkey anti-goat IgG antibody (Invitrogen) and Alexa Fluor 647 donkey anti-mouse IgG antibody (Invitrogen). All quantitative analyses were performed using the Object Count tool in Nikon AR 4.60. For each image, the lower intensity threshold limit of each fluorescence channel was defined as the intensity of the dimmest punctum returned using the 3 points circle threshold tool. The upper intensity threshold limit was set to the maximum value. Equivalent diameter (EqDiameter) was restricted to 1.85-30.00 pixels. Circularity was restricted to 0.20-1.00. Mean fluorescence intensity was measured for all DAMP^+ puncta. Melanosomes were identified as HMB45^+ puncta. DAMP measurements were only recorded when colocalized with HMB45. Frequency distributions were generated for each sample from mean DAMP fluorescence intensity of DAMP^+ melanosomes. All analyses were performed on two replicate coverslips (n≥15 cells per coverslip). Melanosomes were first identified as TRP1^+ or tyrosinase^+ puncta. sAC^+ melanosomes were identified as R52^+ or R21^+ puncta colocalizing with TRP1^+ or tyrosinase^+ puncta. The degree of colocalization between sAC and melanosomes was calculated as the number of sAC+ melanosomes divided by the total number of melanosomes and expressed as a percentage.
The effect of sAC inhibition on melanosome pH was also assessed in human melanocytes.

C3H/HeJ mice = assay: Topical treatment of ear, epidermal pigmentation (Fontana Masson); format: in vivo, mouse; conditions: topical on right ear, twice a day for two weeks
Protocol: Melanocytes also exist in the epidermis at specific areas of mouse skin (e.g., pinnae) (Nordlund et al., Dermatol Clin., 4(3): 407-418 (1986)); thus, these areas were studied to examine the role of sAC in epidermal pigmentation. For analysis of epidermal pigmentation, using C3H/HeJ mice as above, 20 μl of KH7 ([…]), LRE1 (28 mg/ml) or DMSO (vehicle control) was topically applied on the right ear and DMSO was topically applied on the left ear twice a day for two weeks. Ear skin was monitored daily for irritation and changes in pigmentation. After two weeks, mice were euthanized and the treated skin was submitted to a blinded animal pathologist for histological evaluation of the epidermis and special stains (Fontana Masson). This experiment was performed twice with 3 mice per cohort (total n=6)

CC(Sc1nc2ccccc2[nH]1)C(=O)N/N=C/c1cc(Br)ccc1O (centres unmarked) [KH7]
eumelanin levels (sAC^FF mouse melanocytes): increased eumelanin levels
eumelanin levels (sAC^KO mouse melanocytes): had no effect
melanosome pH (DAMP), substance alone (human melanocytes): alkaline shift in melanosome pH
colour of ear epidermis relative to vehicle control (C3H/HeJ mice; 20 μl KH7 or LRE1 (28 mg/ml)): induced visual darkening of mouse ear epidermis
epidermal melanin accumulation (Fontana Masson) (C3H/HeJ mice): increase in epidermal melanin accumulation
